Legend:
[1] = system: methicillin-resistant Staphylococcus aureus (MRSA) O-271 strain; experiment: Rabbit ocular infection: viable bacterial number in corneal and conjunctival tissues; type: in vivo, Japanese White Rabbits; settings: for Viable Bacterial Number (CFU/Cornea): 52 hours after inoculation, average
Method: (§1) The subject substances used for the test include […], 0.3 w/v % and 0.5 w/v % gatifloxacin eye drops. The control substances used include a 0.3 w/v % ofloxacin eye drop, a 0.5 w/v % levofloxacin eye drop and a physiological saline.
(§2) Japanese White Rabbits (male, 1.74 to 2.30 kg in weight) were generally anesthetized, and then 30 μL of 3.1×10^5 CFU/mL methicillin-resistant Staphylococcus aureus (MRSA) O-271 strain suspension was injected into a corneal stroma of each rabbit via a 27 gauge injection needle attached to a 100 μL microsyringe.
(§3) Five hours and 24 hours after the bacterial inoculation, 50 μL of each test substance was instillated into the rabbit eye using a micropipet. In the observation carried out 8, 16, 24, 32, and 48 hours after the bacterial inoculation, symptoms such as opacity of cornea, and redness and edema of conjunctiva were observed and scored based on the criteria as shown in Table 1. Each rabbit was sacrificed 52 hours after the bacterial inoculation, and then the eyeball was enucleated and cornea and conjunctiva were cut out. These tissue sections were morcellated in 2 mL of a physiological saline, diluted, and plated onto a Mueller-Hinton agar medium, and then the viable bacterial number was determined by counting the colonies formed after 48 hours.

[2] = system: methicillin-resistant Staphylococcus aureus (MRSA) O-271 strain ocular infection; experiment: Rabbit ocular infection: scoring of corneal and conjunctival findings; type: in vivo, Japanese White Rabbits
Method: Antiinflammatory Effects on Rabbit Ocular Infection
as §1, §2, §3

[3] = system: TNF-alpha production by lipopolysaccharide-stimulated macrophages; experiment: Effect on TNF-alpha production by lipopolysaccharide-stimulated macrophages (ELISA); type: cell-based, C3H/HeNCrj mice; settings: five-hour culture
Method: Effect on TNF-Alpha Production by Lipopolysaccharide-Stimulated Macrophages Gatifloxacin was added to a culture medium at a concentration of 1, 10, or 100 μg/mL. One mL of 3% thioglycolate culture medium (Sigma) was intraperitoneally administered to C3H/HeNCrj mice (male, 11 weeks old) to induce macrophages. Six days after the administration, the animals were sacrificed, and then 10 mL of sterile RPMI 1640 (GIBCO BRL; 10% FBS-RPMI) containing 100 U/mL penicillin-100 μg/mL streptomycin (GIBCO BRL) and 10 v/v % fetal bovine serum (FBS) was intraperitoneally injected. After gentle massage of the abdomen, the 10% FBS-RPMI was collected from the abdomen cavity. After the collected 10% FBS-RPMI was centrifuged, the supernatant was removed and the peritoneal exudate cells including macrophages were harvested. The harvested peritoneal exudate cells were suspended in 10% FBS-RPMI at a concentration of […], and the suspension was plated in each well of a 24-well plate. After incubation for 1.5 hours, non-adherent cells were washed out with 10% FBS-RPMI, and macrophages adhering to the plate were obtained. […] Each content of TNF-alpha in the culture supernatant was determined by using an enzyme immunoassay (ELISA).

Row | Compound | Viable Bacterial Number (CFU/Cornea) ([1]; 0.3% eye drop) | Viable Bacterial Number (CFU/Cornea) ([1]; 0.5% eye drop) | Viable Bacterial Number (CFU/Cornea) ([1]; 0.1% eye drop) | viable bacterial number in the corneal tissue (in words) ([1]; 0.1, 0.3 and 0.5 w/v % eye drop groups) | viable bacterial number in the corneal tissue (in words) ([1]; 0.5 w/v % eye drop) | symptoms of the corneal infection (total cornea score) ([2]; 0.1, 0.3 and 0.5 w/v % eye drops, 50 μL at 5 and 24 h after inoculation, observed until 48 hours) | conjunctival findings (total conjunctiva score) ([2]; 0.3 w/v % and 0.5 w/v % eye drops, after 32 hours) | conjunctival findings (total conjunctiva score) ([2]; 0.5 w/v % eye drop, after 48 hours) | symptoms of the corneal infection (total cornea score) ([2]; 0.5 w/v % eye drop, until 48 hours after inoculation) | symptoms of the corneal infection (total cornea score), comparison with ofloxacin ([2]; eye drop concentration of 0.3 w/v % or more, vs 0.3 w/v % ofloxacin eye drop) | concentration significantly suppressing the increase in TNF-alpha content ([3]; in combination with LPS 1 μg/mL, Williams' test) | inhibition of LPS-stimulated TNF-alpha production (TNF-alpha content of culture supernatant) ([3]; mouse peritoneal macrophages, LPS 1 μg/mL, gatifloxacin 1, 10 or 100 μg/mL)
1 | CC1COc2c(N3CCN(C)CC3)c(F)cc3c(=O)c(C(=O)O)cn1c23 (centres unmarked) [Ofloxacin] | 2.0 × 10^5 CFU/Cornea | – | – | – | – | – | – | – | – | – | – | –
2 | C[C@H]1COc2c(N3CCN(C)CC3)c(F)cc3c(=O)c(C(=O)O)cn1c23 [Levofloxacin] | – | 4.4 × 10^2 CFU/Cornea | – | – | – | – | – | – | – | – | – | –
3 | COc1c(N2CCNC(C)C2)c(F)cc2c(=O)c(C(=O)O)cn(C3CC3)c12 (racemic) [Gatifloxacin, (±)-1-cyclopropyl-6-fluoro-1,4-dihydro-8-methoxy-7-(3-methyl-1-piperazinyl-4-oxo-3-quinolinecarboxylic acid] | 1.1 × 10^3 CFU/Cornea | 3.9 × 10^2 CFU/Cornea | 1.3 × 10^4 CFU/Cornea | decreased dose-dependently | greatly decreased | dose-dependently inhibited | stronger inhibitory effect than the ofloxacin or the levofloxacin eye drop group | significantly stronger inhibitory effect than the 0.5 w/v % levofloxacin eye drop group | strong inhibitory effect | stronger inhibitory effect than the 0.3 w/v % ofloxacin eye drop group | ≥ 1 µg/mL | dose-dependently inhibited
